Experiments:
Test in all cases: cFMs Autophosphorylation Fluorescence Polarization End Point Assay.
Settings in all cases: pH 7.5; 22 °C
[1] = target: T1, Macrophage colony-stimulating factor 1 receptor [538-678,753-922] (Homo sapiens, UniProt P07333)
T1 construct: 538-678,753-922
T1 sequence (P07333 whole entry): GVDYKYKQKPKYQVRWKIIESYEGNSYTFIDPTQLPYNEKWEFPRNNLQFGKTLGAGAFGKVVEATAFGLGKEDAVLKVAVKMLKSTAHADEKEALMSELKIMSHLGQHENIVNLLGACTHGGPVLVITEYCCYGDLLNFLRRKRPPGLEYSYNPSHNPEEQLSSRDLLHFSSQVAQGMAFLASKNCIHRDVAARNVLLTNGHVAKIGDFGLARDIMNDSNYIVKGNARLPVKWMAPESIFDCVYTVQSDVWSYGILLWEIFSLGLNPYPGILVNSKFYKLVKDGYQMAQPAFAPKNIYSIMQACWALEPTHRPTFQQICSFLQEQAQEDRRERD
Method: (§1) Control reactions were run in each plate. Assay buffer was substituted for the compound in positive and negative control wells. The fluorescence polarization was measured after 30 min of incubation. […] The IC50 values reported are the averages of three independent measurements.

[2] = target: T2, Macrophage colony-stimulating factor 1 receptor [538-678,753-922] (Homo sapiens, UniProt P07333); remark: listed apart in the source
T2 construct: 538-678,753-922
T2 sequence (P07333 whole entry): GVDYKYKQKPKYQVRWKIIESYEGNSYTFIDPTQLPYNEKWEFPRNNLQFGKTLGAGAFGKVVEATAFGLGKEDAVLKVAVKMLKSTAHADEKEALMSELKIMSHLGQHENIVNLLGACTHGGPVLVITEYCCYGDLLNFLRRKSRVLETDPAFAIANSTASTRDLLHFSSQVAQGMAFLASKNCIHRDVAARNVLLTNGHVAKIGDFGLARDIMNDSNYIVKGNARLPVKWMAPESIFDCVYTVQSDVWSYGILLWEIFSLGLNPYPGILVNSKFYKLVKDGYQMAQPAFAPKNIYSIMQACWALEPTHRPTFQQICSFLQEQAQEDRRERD
Method: as §1

[3] = target: T3, Macrophage colony-stimulating factor 1 receptor [538-972] (UniProt P07333)
T3 construct: 538-972
T3 sequence (P07333 whole entry): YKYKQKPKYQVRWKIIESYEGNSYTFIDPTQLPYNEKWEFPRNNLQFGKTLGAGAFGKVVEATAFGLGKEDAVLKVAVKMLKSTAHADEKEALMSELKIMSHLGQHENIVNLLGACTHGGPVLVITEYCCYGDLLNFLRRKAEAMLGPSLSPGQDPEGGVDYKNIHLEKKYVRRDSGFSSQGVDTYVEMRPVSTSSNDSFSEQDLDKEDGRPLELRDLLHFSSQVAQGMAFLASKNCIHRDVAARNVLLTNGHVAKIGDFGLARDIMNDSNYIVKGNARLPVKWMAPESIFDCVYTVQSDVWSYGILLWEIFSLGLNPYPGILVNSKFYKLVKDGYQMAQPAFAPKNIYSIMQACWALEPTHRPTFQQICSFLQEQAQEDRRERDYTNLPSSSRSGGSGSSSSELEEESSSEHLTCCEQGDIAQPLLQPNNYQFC
Method: as §1

| SMILES | IC50 [1] [µM] | IC50 [2] [µM] | IC50 [3] [µM] |
| --- | --- | --- | --- |
| Cc1cc2ncc(-c3ccc(O)c(O)c3)nc2cc1C [2-(3,4-Dihydroxyphenyl)-6,7-dimethylquinoxaline] | 9.4 | 8.3 | 10 |
| O=Nc1c(C2C(=O)Nc3ccccc32)[nH]c2ccccc12 (configuration not stated) [Indirubin-3 -monoxime] | 4.2 | 4.5 | 4.8 |
| CN(C)CCNC(=O)N1CCN(Cc2cc(C(F)(F)F)cc(C(F)(F)F)c2)CC1 [JNJ31117164] | 1.2 | 1.3 | 1.2 |
| N#C/C(=C\c1ccc(O)c(O)c1)C(N)=S [alpha-Cyano-(3,4-dihydroxy)thiocinnamide] | 3 | 3.3 | 2.9 |
